Literature values, collected in patent US8288412B2, “Compounds which have activity at M1 receptor and their uses in medicine” (Glaxo Group Limited, priority 2005, dated 2012).

Tests used:
[1] = rats
[2] = monkeys
[3] = unilateral 6-OH-DA lesioned rats
[4] = mice

**Q.** For CCCCCCOc1nsnc1C1=CCCN(C)C1 [xanomeline], which amphetamine induced locomotion [1] is on record?
**A.** Its amphetamine induced locomotion is “reverses”.

**Q.** And the amphetamine-induced motor unrest [2]?
**A.** The amphetamine-induced motor unrest was “reverses”.

**Q.** What about the “dopamine agonist driven turning” value [3] of the same compound?
**A.** Its value is “reverses”.

**Q.** What about the “psychotic symptoms such as suspiciousness, hallucinations and delusions” value (Alzheimer's patients) of the same compound?
**A.** Its value is “reduce psychotic symptoms”.

**Q.** What about the side effects (patients) of the same compound?
**A.** The side effects was “dose-limiting peripheral cholinergic side effects”.

**Q.** What about the apomorphine induced climbing [4] of the same compound?
**A.** Its apomorphine induced climbing is “reverses”.
